These results are taken from patent US5726162A (priority 1996, dated 1998).

In assay [1] the test system is Magnaporthe grisea (Pyricularia oryzae). The assay can be described thus: whole plant or invertebrate. The assay is classed as in vivo, Magnaporthe grisea (Pyricularia oryzae) on M201 rice plants. The note with it: for pest or weed control at 200 ppm: Pyricularia oryzae, 144 h, read-out: % Control RB.
The next assay concerns fungal inoculum. The assay can be described thus: organism not typed. The assay is classed as cell-based.
The test system of another assay is Candida albicans. The assay can be described thus: Activity against Candida albicans in microtiter plates, % control of growth. In kind it is cell-based. On the procedure:
The activity against Candida albicans was determined using the following test protocol.
Conidia and mycelium from the Candida albicans culture maintained on potato dextrose agar plates were lightly scraped off into yeast extract-dextrose broth (YDB) so that mostly conidia was used as inoculum. The conidial suspsension was strained through a double layer of cheesecloth to remove mycelial clumps. The inoculum mixture was placed in microtiter plates using a 12-tipped pipet. 175 microliters were placed in each well of the microliter plates and the plates were placed in the refrigerator overnight. There were two replications.
The compounds to be tested were dissolved in 1:1 acetone:methanol and 100 ppm of the compound solution were placed in a well of the prepared microtiter plates.
The microtiter plates were incubated for 7 days at room temperature after addition of the compounds. Percent control was visually estimated using a microtiter plate reading mirror. Readings were made at 1, 2, 3, and/or 7 days after treatment.

The test system of a further assay is fungal mycelium. The assay can be described thus: organism not typed. In kind it is cell-based. Particulars: read-out: % growth inhibition.
For assay [2], the system named is Thanatephorus cucumeris (Rhizoctonia solani). The assay can be described thus: In vivo test b) Rice Sheath Blight (RSB), 24 hour preapplication protectant, % control. Particulars: read-out: % Control RSB. On the procedure:
Compounds were tested at 200 ppm as a twenty-four hour preapplication protectant test prior to inoculation.
b) Rice Sheath Blight (RSB)
Thanatephorus cucumeris (Rhizoctonia solani) mycelia were grown for six days in potato dextrose broth in shake culture. Drained mycelial mats were blended with an approximately equal weight of rice flour and five parts water. This slurry was dispensed onto the soil surface of pots containing rice seedlings previously treated with experimental compounds. The plants were placed in a mist chamber at 25°-28° C. for 48 hours. Following two more days at 25° C. and 70-90% relative humidity the plants were evaluated for percent disease control compared to check plants.

Setting [3] is: 24 h, 1 day after treatment, read-out: % control of growth +1.
Where [4] appears, read: 48 h, 2 days after treatment, read-out: % control of growth +2.
The mark [5] stands for this setting: 72 h, 3 days after treatment, read-out: % control of growth +3.

What is called inhibition is the share of the control response that was lost under treatment.

Like-named read-outs stand apart in the source and are kept apart here.

Consider `CC(C)C#CCN1N=C(c2ccc(Cl)cc2)CCC1=O` [Compound 34], for which the pest or weed control at 200 ppm in assay [1] stood at 90%. Besides, the inhibition at 10 ppm in the assay with fungal inoculum (read-out: % growth inhibition) was found to be 100%. Besides, the inhibition of growth at 100 ppm with Candida albicans (setting [3]), with Candida albicans (setting [4]) and in the assay on Candida albicans (setting [5]) was 100% in each case.
On to `C=CC#CCN1N=C(c2ccc(Cl)cc2)CCC1=O` [Compound 56, 6-(4-chlorophenyl)-2-(3'-vinyl-2'-propynyl)-4,5-dihydropyridazinone], for which, in assay [1], the pest or weed control at 200 ppm was 100%. Also, in the assay on fungal inoculum (read-out: % growth inhibition), the inhibition at 1 ppm is 100%. Besides, the inhibition of growth at 100 ppm with Candida albicans (setting [3]), in the assay with Candida albicans (setting [4]) and in the assay on Candida albicans (setting [5]) was 100% throughout.
With `O=C1CCC(c2ccc(Cl)cc2)=NN1CC#CCF` [Compound 76, 6-(4-chlorophenyl)-2-(4'-fluoro-2'-butynyl)-4,5-dihydropyridazinone], the pest or weed control at 200 ppm in assay [1] came out at 0%. Besides, the inhibition at 10 ppm with fungal mycelium worked out at 100%. Moreover, the inhibition of growth at 100 ppm in the assay on Candida albicans (setting [3]), with Candida albicans (setting [4]) and in the assay with Candida albicans (setting [5]) was 100% in each case.
On to `CCC#CCN1N=C(c2ccc(-c3ccccc3)cc2)CCC1=O` [Compound 79], for which the pest or weed control at 200 ppm is 100% in assay [1] and 75% in assay [2] (200 ppm, protectant). Besides, the inhibition at 50 ppm in the assay on fungal mycelium worked out at 17%.
With `CCC#CCN1N=C(c2ccc(C)cc2)CCC1=O` [Compound 80], the pest or weed control at 200 ppm in assay [1] worked out at 99%; in assay [2], 0%. Moreover, the inhibition at 2.5 ppm in the assay on fungal mycelium amounted to 100%.
For `O=C1CCC(c2ccc(Cl)cc2)=NN1CC#CC(F)F` [Compound 89], the pest or weed control at 200 ppm is 95% in assay [1] and 0% in assay [2] (200 ppm, protectant). Further, the inhibition at 10 ppm with fungal mycelium stood at 100%.
`CCC#CCN1N=C(c2cc(F)c(Cl)c(F)c2)CCC1=O` [Compound 90]: the pest or weed control at 200 ppm was 0% in assay [1] and 95% in assay [2] (200 ppm, protectant). Moreover, the inhibition at 1 ppm with fungal mycelium worked out at 100%.
In the same order, the values of `CC=CC#CCN1N=C(c2ccc(Cl)cc2)CCC1=O` [Compound 101] are 75%, 0% and 100%.
In the same order, the values of `C/C=C\C#CCN1N=C(c2ccc(Cl)cc2)CCC1=O` [Compound 102] are 99%, 0% and 100%.
The like results for `C/C=C/C#CCN1N=C(c2ccc(Cl)cc2)CCC1=O` [Compound 103] were, in that order, 95%, 0% and 100%.
As for `CCC#CCN1N=C(c2ccc(F)c(Cl)c2)CCC1=O` [Compound 104], the pest or weed control at 200 ppm was determined as 0% in assay [1] and 0% in assay [2] (200 ppm, protectant). For the same compound, the inhibition at 5 ppm in the assay with fungal mycelium worked out at 100%.
On to `O=C1CCC(c2ccc(Cl)cc2)=NN1Cc1cccc(Cl)c1` [Compound 105], for which the pest or weed control at 200 ppm in assay [1] was 75%; in assay [2] (200 ppm, protectant), 0%. In addition, in the assay on fungal mycelium, the inhibition at 10 ppm amounted to 33.3%.
For `CC#CCN1N=C(C=Cc2ccc(C(C)(C)C)cc2)CCC1=O` [Compound 107], the pest or weed control at 200 ppm in assay [1] worked out at 0%; in assay [2] (200 ppm, protectant), 0%. Also, the inhibition at 200 ppm in the assay with fungal mycelium came to 83.7%.
`CCC#CCn1nc(-c2ccc(Cl)c(Cl)c2)ccc1=O` [Compound 112]: in assay [1], the pest or weed control at 200 ppm was 90%. Besides, the inhibition at 10 ppm with fungal inoculum (read-out: % growth inhibition) came to 100%.
The like results for `CCC#CCn1nc(-c2ccc(Cl)c(C)c2)ccc1=O` [Compound 113] were, in that order, 95% and 64.3%.
`CC#CCn1nc(-c2ccc(Cl)c(C)c2)ccc1=O` [Compound 114]: the pest or weed control at 200 ppm in assay [1] turned out to be 50%. For the same compound, the inhibition at 5 ppm with fungal inoculum (read-out: % growth inhibition) stood at 100%.
As to `CCC#CCn1nc(-c2ccc(Cl)cc2C)ccc1=O` [Compound 115], in assay [1], the pest or weed control at 200 ppm stood at 50%. In addition, the inhibition at 50 ppm with fungal inoculum (read-out: % growth inhibition) was 93.7%.
For `CC#CCn1nc(-c2ccc(Cl)cc2C)ccc1=O` [Compound 116], in assay [1], the pest or weed control at 200 ppm turned out to be 0%. Moreover, in the assay on fungal inoculum (read-out: % growth inhibition), the inhibition at 50 ppm amounted to 82.5%.
Turning to `CCC#CCn1nc(-c2ccc(OCC)cc2)ccc1=O` [Compound 117], the pest or weed control at 200 ppm in assay [1] worked out at 0%. The inhibition at 200 ppm in the assay on fungal inoculum (read-out: % growth inhibition) came out at 34.7%.
Turning to `CCC#CCn1nc(-c2ccc(Cl)c(F)c2)ccc1=O` [Compound 120], in assay [1], the pest or weed control at 200 ppm turned out to be 99%. Moreover, the inhibition at 1 ppm in the assay on fungal mycelium is 100%. The inhibition of growth at 100 ppm in the assay with Candida albicans (setting [3]), in the assay with Candida albicans (setting [4]) and in the assay on Candida albicans (setting [5]) was 100% each time.
Turning to `CCC#CCn1nc(-c2ccc(Br)cc2)ccc1=O` [Compound 121], the pest or weed control at 200 ppm in assay [1] was 95%. Also, the inhibition at 1 ppm in the assay with fungal mycelium turned out to be 100%. Moreover, the inhibition of growth at 100 ppm in the assay on Candida albicans (setting [3]), in the assay on Candida albicans (setting [4]) and in the assay on Candida albicans (setting [5]) was 100% in each case.
For the compound `CCC[CH2][Sn]([C]#CCN1N=C(c2ccc(Cl)cc2)CCC1=O)([CH2]CCC)[CH2]CCC` [Compound 124, 6-(4-chlorophenyl)-2-(3'-tri-n-butyltin-2'-propynyl)-4,5-dihydropyridazinon], in assay [1] (200 ppm, protectant), the “% Control RB” value was 0%. The “% growth inhibition” value in the assay on fungal inoculum is on record as 100.0%.
In the case of `CCC#CCn1nc(-c2ccc(Br)c(F)c2)ccc1=O` [Compound 127], in assay [1], the pest or weed control at 200 ppm came out at 0%. Moreover, in the assay on fungal mycelium, the inhibition at 1 ppm amounted to 100%. The inhibition of growth at 100 ppm in the assay with Candida albicans (setting [3]), in the assay with Candida albicans (setting [4]) and in the assay on Candida albicans (setting [5]) was 100% each time.
On to `CC(F)C#CCn1nc(-c2ccc(Cl)cc2)ccc1=O` (stereo not drawn) [Compound 130], for which, in the assay on fungal mycelium, the inhibition at 1 ppm came out at 100%. The inhibition of growth at 100 ppm in the assay with Candida albicans (setting [3]), in the assay with Candida albicans (setting [4]) and with Candida albicans (setting [5]) was 100% in each case.
Regarding `O=c1ccc(-c2ccc(Cl)cc2)nn1CC#CCCF` [Compound 131], the inhibition at 1 ppm in the assay with fungal mycelium was 100%. Also, the inhibition of growth at 100 ppm in the assay on Candida albicans (setting [3]), in the assay with Candida albicans (setting [4]) and in the assay on Candida albicans (setting [5]) was 100% in each case.
For the compound `CC#CCN1N=C(c2cccc3ccccc23)CCC1=O` [Compound 134, 6-(1-naphthyl)-2-(2'-pentynyl)-4,5-dihydropyridazinone], in assay [1], the pest or weed control at 200 ppm was 0%. Further, in the assay with fungal inoculum (read-out: % growth inhibition), the inhibition at 50 ppm was determined as 66.5%.
For `CCC#CCN1N=C(c2ccc3ccccc3c2)CCC1=O` [Compound 136], the pest or weed control at 200 ppm in assay [1] was found to be 99%. Moreover, the inhibition at 1 ppm in the assay with fungal inoculum (read-out: % growth inhibition) stood at 84.6%.
As to `CC#CCN1N=C(c2c(OC)ccc3ccc(OC)cc23)CCC1=O` [Compound 138], the pest or weed control at 200 ppm in assay [1] was determined as 0%. In addition, the inhibition at 100 ppm in the assay with fungal inoculum (read-out: % growth inhibition) stood at 64.6%.
Consider `CC#CCN1N=C(c2ccccc2)CCCC1=O` [Compound 139, 2-(2-butynyl)-7-phenyl-1,2-diazapin-3-one], for which, in assay [1], the pest or weed control at 200 ppm was 0%. The inhibition at 100 ppm in the assay on fungal inoculum (read-out: % growth inhibition) is 65%.
For the compound `CC#CCN1N=C(c2cccs2)CCC1=O` [Compound 140], in assay [1], the pest or weed control at 200 ppm turned out to be 75%. Also, in the assay on fungal inoculum (read-out: % growth inhibition), the inhibition at 100 ppm worked out at 37.8%.
In the same order, the values of `CC#CCN1N=C(c2ccc3ccc4cccc5ccc2c3c45)CCC1=O` [Compound 141] are 0% and 23.9%.
In the case of `CCC#CCN1N=C2c3ccccc3CC2CC1=O` (stereo not drawn) [Compound 142], the pest or weed control at 200 ppm in assay [1] was found to be 50%. The inhibition at 50 ppm with fungal inoculum (read-out: % growth inhibition) is 100%.
Turning to `CCC#CCn1cc(-c2ccc(Cl)cc2)cc(C#N)c1=O` [Compound 146, 5-(4-chlorophenyl)-3-cyano-1-(2-pentyn-1-yl)-2-pyridinone], the pest or weed control at 200 ppm in assay [1] turned out to be 0%. In the assay with fungal inoculum (read-out: % growth inhibition), the inhibition at 10 ppm came to 5%.
`CCC#CCn1nc(-c2sc3ccccc3c2Br)ccc1=O` [Compound 148]: in assay [1], the pest or weed control at 200 ppm was 0%. Moreover, in the assay with fungal inoculum (read-out: % growth inhibition), the inhibition at 10 ppm is 0%.
As for `CCC#CCC1(CC#CCC)c2cc(Cl)ccc2-c2n[nH]c(=O)cc21` [Compound 151, 5,5'-[bis(pent-2-yn-1-yl)]-7-chloro-2,5-dihydroindeno-[1,2-c]-(2H)-pyridazin-3-one], the pest or weed control at 200 ppm in assay [1] stood at 0%. In addition, the inhibition at 100 ppm in the assay on fungal inoculum (read-out: % growth inhibition) was found to be 80.6%.
Regarding `CCC#CCN1N=C(c2ccc(Cl)cc2)CCC1=S` [Compound 153, 6-(4-chlorophenyl)-2-(2'-pentynyl)-4,5-dihydropyridazinthione], in assay [1], the pest or weed control at 200 ppm was 0%. For the same compound, the inhibition at 10 ppm with fungal mycelium was 90.9%. Also, the inhibition of growth at 100 ppm in the assay on Candida albicans (setting [3]), in the assay on Candida albicans (setting [4]) and with Candida albicans (setting [5]) was 100% in each case.
For the compound `CCC#CCN1N=C(c2ccc3ccccc3n2)CCC1=O` [Compound 229, 6-(2-quinoline)-2-(2'-pentynyl)-4,5-dihydropyridazinone], the inhibition at 5 ppm in the assay on fungal mycelium came out at 100%. Besides, the inhibition of growth at 100 ppm in the assay with Candida albicans (setting [3]), in the assay on Candida albicans (setting [4]) and in the assay on Candida albicans (setting [5]) was 100% each time.
